# Test results published in patent publication US20030083334A1, “Synergistic insecticidal formulations of pyridaben and strobilurins” (priority 2000, published 2003).
# Legend:
# [1] = system: cotton aphid (Aphis gossypil); experiment: Greenhouse trial, cotton plants infected with cotton aphid, sprayed; % control; format: in vivo
# Description: (§1) A greenhouse trial was conducted to determine the insecticidal effects against the cotton aphid (Aphis gossypil). In this regard, cotton plants infected with the cotton aphid were sprayed in a growth chamber and placed in a greenhouse. Counts were made on apterous forms at 6 and 16 days after treatment (DAT), with the data appearing in Tables 1A and 1 B below.
# cotton aphid = experiment: Greenhouse trial, number of apterous aphids (AA) per cotton plant; format: in vivo, Aphis gossypil; settings: for # of AA 6 DAT / # of AA 16 DAT: apterous aphids per plant; for # of AA 6 DAT: untreated 290; for # of AA 16 DAT: untreated 750
# Description: as §1
# Example 1 was repeated and the number of apterous aphids (AA) per plant at 6 and 16 DAT were noted. The data appear in Table 4 below versus a conventional insecticide, imidacloprid (Provado® insecticide commercially available from Bayer Corp.).
# [2] = system: green peach aphids (Myzus persicae); experiment: Greenhouse trial, celosia infected with green peach aphids; % control; format: in vivo
# Description: as §1
# Example 1 was repeated except using celosia infected with green peach aphids (Myzus persicae) and using the application rates noted.
# [3] = system: twospotted spider mites (Tetranychus urticae); experiment: Greenhouse trial, dracaena infected with twospotted spider mites; % control; format: in vivo
# Description: as §1
# Example 1 was repeated except using dracaena infected with twospotted spider mites (Tetranychus urticae) and using the application rates noted.
Compound,% Cotton Aphid Control 6 DAT ([1]; 5 ppm) [%],% Cotton Aphid Control 16 DAT ([1]; 5 ppm) [%],% Cotton Aphid Control 6 DAT ([1]; 10 ppm) [%],% Cotton Aphid Control 16 DAT ([1]; 10 ppm) [%],% Cotton Aphid Control 6 DAT ([1]; 50 ppm) [%],% Cotton Aphid Control 16 DAT ([1]; 50 ppm) [%],% Cotton Aphid Control 6 DAT ([1]; 100 ppm) [%],% Cotton Aphid Control 16 DAT ([1]; 100 ppm) [%],# of AA 6 DAT (cotton aphid; 5 ppm ai),# of AA 16 DAT (cotton aphid; 5 ppm ai),# of AA 6 DAT (cotton aphid; 10 ppm ai),# of AA 16 DAT (cotton aphid; 10 ppm ai),# of AA 6 DAT (cotton aphid; 50 ppm ai),# of AA 16 DAT (cotton aphid; 50 ppm ai),# of AA 6 DAT (cotton aphid; 100 ppm ai),# of AA 16 DAT (cotton aphid; 100 ppm ai),other results
"CC(C)(C)c1ccc(CSc2cnn(C(C)(C)C)c(=O)c2Cl)cc1 [BAS 300, 2-tert-butyl-5-(4-tert-butylbenzylthio)-4-chloropyridazin-3(2H)-one]",73.8,68.9,75.2,70.4,94.5,98,97.6,99.1,76,233,72,222,16,15,7,7,"activity against the cotton aphid (cotton aphid; 6 DAT, application rate of 5 ppm ai): moderate activity; # of AA 6 DAT (cotton aphid; 200 ppm ai): 1; # of AA 16 DAT (cotton aphid; 200 ppm ai): 4; # of AA 6 DAT (cotton aphid; 300 ppm ai): 2; # of AA 16 DAT (cotton aphid; 300 ppm ai): 2; intrinsic activity against the cotton aphid (cotton aphid; in vivo): excellent intrinsic activity; % Green Peach Aphid Control ([2]; 0.9 lb ai/100 gal, 2 DAT): 0%; % Green Peach Aphid Control ([2]; 0.9 lb ai/100 gal, 4 DAT): 47%; % Green Peach Aphid Control ([2]; 0.9 lb ai/100 gal, 6 DAT): 77%; % Green Peach Aphid Control ([2]; 0.9 lb ai/100 gal, 10 DAT): 97%; % Green Peach Aphid Control ([2]; 0.9 lb ai/100 gal, 14 DAT): 95%; % Twospotted Spider Mite Control ([3]; 2 oz formulated product/100 gal, 7 DAT): 80%; % Twospotted Spider Mite Control ([3]; 2 oz formulated product/100 gal, 14 DAT): 91%"
"CO/N=C(/C(=O)OC)c1ccccc1COc1ccccc1C [BAS 490, methyl-(E)-2-methoxyimino-2-[2-o-tolyoxy-methyl)phenyl] acetate]",11,13.3,0,14.3,0,4.4,0,26.6,258,650,290,643,298,717,316,550,"effectiveness alone against the cotton aphid (cotton aphid; alone, at all rates): ineffective alone; % Green Peach Aphid Control ([2]; 0.1 lb ai/100 gal, 2 DAT): 0%; % Green Peach Aphid Control ([2]; 0.1 lb ai/100 gal, 4 DAT): 14%; % Green Peach Aphid Control ([2]; 0.1 lb ai/100 gal, 6 DAT): 5%; % Green Peach Aphid Control ([2]; 0.1 lb ai/100 gal, 10 DAT): 10%; % Green Peach Aphid Control ([2]; 0.1 lb ai/100 gal, 14 DAT): 5%; % Twospotted Spider Mite Control ([3]; 3.2 oz formulated product/100 gal, 7 DAT): 16%; % Twospotted Spider Mite Control ([3]; 3.2 oz formulated product/100 gal, 14 DAT): 28%"
